Literature values in patent US7705017B2, “Compounds for treatment of neurodegenerative diseases” (En Vivo Pharmaceuticals, Inc., priority 2004, dated 2010).

What was measured:
[1] = test system: Huntington's disease in a mouse model; settings: orally administered
[2] = test system: Histone Deacetylase-Like Protein (HDLP); settings: HDLP deacetylates histones in vitro

For `O=C(CCCCCCC(=O)Nc1ccccc1)NO` [SAHA, suberoylanilide hydroxamic acid], the “motor impairment in mice” value [1] is listed as “dramatically improved the motor impairment”.

In the case of `CC(/C=C/C(=O)NO)=C\[C@@H](C)C(=O)c1ccc(N(C)C)cc1` [TSA, trichostatin A], the “inhibition of HDAC-like protein (HDLP)” value [2] is listed as “inhibited”.
